Test results published in patent US20090105220A1, “PROCESS FOR THE PREPARATION OF NONPEPTIDE SUBSTITUTED SPIROBENZOAZEPINE DERIVATIVES” (priority 2003, published 2009).
Structures can show the parent of a compound that is named as a salt.

For CN(C)CCNC(=O)C1=C[C@@]2(CC1)CCN(C(=O)c1ccc(NC(=O)c3ccccc3-c3ccccc3)cc1)c1ccccc1C2.O=C(O)c1ccccc1, which melting point is on record?
The melting point was 180 to 185 °C (dec.).

With CN(C)CCNC(=O)C1=C[C@@]2(CC1)CCN(C(=O)c1ccc(NC(=O)c3ccccc3F)cc1)c1ccccc1C2 (as salt: phosphate) as the molecule, how does the melting point read?
The melting point was 148 to 158 °C (dec.).

With O=C(O)C1=C[C@@]2(CC1)CCN(C(=O)c1ccc(NC(=O)c3ccccc3-c3ccccc3)cc1)c1ccccc1C2 as the molecule, how does the melting point read?
The melting point was 263 to 265 °C.
